The target of assay [1] is T1, PHM (Rattus norvegicus, UniProt P14925).
T1 sequence (P14925 36-715 isoform P14925-2 limits assumed): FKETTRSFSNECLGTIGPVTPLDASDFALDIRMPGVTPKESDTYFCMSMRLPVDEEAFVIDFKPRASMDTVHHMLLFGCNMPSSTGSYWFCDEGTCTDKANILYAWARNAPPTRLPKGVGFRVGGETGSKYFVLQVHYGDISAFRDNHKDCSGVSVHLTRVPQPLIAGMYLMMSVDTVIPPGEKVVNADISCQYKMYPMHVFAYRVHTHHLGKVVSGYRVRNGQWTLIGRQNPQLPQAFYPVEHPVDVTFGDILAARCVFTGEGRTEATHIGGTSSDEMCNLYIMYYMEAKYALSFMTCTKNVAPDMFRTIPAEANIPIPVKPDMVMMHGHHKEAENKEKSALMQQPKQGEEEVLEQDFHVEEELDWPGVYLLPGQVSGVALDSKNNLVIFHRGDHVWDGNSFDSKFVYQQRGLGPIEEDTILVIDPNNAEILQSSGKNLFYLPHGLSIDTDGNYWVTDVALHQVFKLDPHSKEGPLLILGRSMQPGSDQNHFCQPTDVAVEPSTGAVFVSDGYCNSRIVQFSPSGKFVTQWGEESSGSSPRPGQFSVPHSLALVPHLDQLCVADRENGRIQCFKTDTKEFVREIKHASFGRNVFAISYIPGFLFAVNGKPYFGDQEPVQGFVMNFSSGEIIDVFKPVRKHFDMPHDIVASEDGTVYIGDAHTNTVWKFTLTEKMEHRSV
The assay is described as follows: Inhibition of the PHM-dependent consumption of O2. In kind it is biochemical.

Assay [2] concerns the target T1, PHM. The assay is described as follows: Tiopronin protection against the cinnamate-mediated inactivation of PHM. In kind it is biochemical. The settings on record: 60 μM tiopronin, 7.5 mM cinnamate, 2 h.
The test system of assay [3] is dopamine β-monooxygenase (DβM). The settings on record: inactivation of DβM; cited from earlier work.
Assay [4] concerns the target PHM. The following applies: cited from earlier work; for Ki: PHM inactivator; for Km: PHM substrate.
Assay [5] addresses T1, PHM. The assay is described as follows: PHM inactivation by the dilution method. In kind it is biochemical. The settings on record: for Inactivation of PHM (qualitative): dilution method, in the presence of ascorbate and O2; for kinact/KI: pH 6, read-out: (kinact/KI)obs.
For a further assay, the system named is P450. The settings on record: inactivation of P450; cited from earlier work.

The term Km denotes the substrate concentration at which the rate is half of its maximum.

With `O=C(O)C=Cc1ccc2c(c1)OCO2` [3,4-Methylenedioxycinnamic acid], the Ki at PHM [1] turned out to be 300 ± 40 µM.

As to `O=C(O)C=Cc1ccccc1C(F)(F)F` [2-Trifluoromethylcinnamic acid], the Ki at PHM [1] came to 200 ± 20 µM. With `CC(S)C(=O)NCC(=O)O` (centres unmarked) [tiopronin], on PHM [2], the “Protection of PHM from cinnamate-mediated inactivation” value is on record as “did protect PHM from inactivation”. On to phenyl(aminomethyl)ethane, for which, in assay [3], the “partition ratio, kcat/kinact” value is 900. In the case of `O=C(O)C/C=C/c1ccccc1` [PBA, trans-4-phenyl-3-butenoate], the Ki on PHM [4] is 50 µM.

As for `O=C(O)CNC(=O)C=Cc1ccccc1` [cinnamoylglycine, N-cinnamoylglycine], the Km in the assay on PHM [4] is 200 µM.

With `CN(C)c1ccc(C=CC(=O)O)cc1` [N,N-Dimethyl-4-aminocinnamic acid], at PHM [5], the “Inactivation of PHM (qualitative)” value is given as “inactivate PHM” and the kinact/KI was 0.5 M⁻¹ s⁻¹. For `O=C(O)/C=C/C(=O)c1ccccc1` [benzoylacrylate, trans-benzoylacrylate], the Ki on PHM [4] was 200 µM.

Take `C=CCC(C(N)=O)C(C)C` (centres unmarked) [2-isopropyl-4-pentenamide]: the partition ratio with P450 is 200–300. `O=C(O)CNC(=O)CCc1ccccc1` [hydrocinnamoylglycine, N-hydrocinnamoylglycine]: in the assay with PHM [4], the Km is 900 µM. On PHM [1], `Nc1ccc(C=CC(=O)O)cc1` [4-Aminocinnamic acid] had a Ki of 500 ± 60 µM. Moreover, at PHM [5], the “Inactivation of PHM (qualitative)” value is listed as “inactivate PHM” and the kinact/KI is 1 M⁻¹ s⁻¹. For the molecule `CN(C)c1cccc2c(S(=O)(=O)Nc3ccc(C=CC(=O)O)cc3)cccc12` [N-Dansyl-4-aminocinnamic acid], on PHM [5], the “Inactivation of PHM (qualitative)” value is on record as “inactivate PHM” and the kinact/KI was 333 M⁻¹ s⁻¹. Also, the “(kinact/KI)obs relative to cinnamate” value at PHM [5] (ratio to the (kinact/KI)obs value for cinnamate) is listed as ~ 500 fold.

These data come from publication PMC4801743 (Journal of enzyme inhibition and medicinal chemistry, 2015).
